Data on 8 molecules can be found in patent US20120121591A1 (priority 2009, published 2012).

As usually defined, the IC50 is the point on the concentration scale where inhibition reaches its midpoint.

Common to all, as to format: cell-based
Assay [1] has as its target hKv1.3 (Homo sapiens, UniProt P22001). The experiment in a line: cell-based. The conditions noted are these: Kv1.3 (IWQ) IC50 (nM, Avg).
Assay [2] relates to IFN-g secretion from T cells in human whole blood. The conditions noted are these: read-out: WB (IFNg) IC50 (nM, Avg).
For assay [3], the system named is IL-2 secretion from T cells in human whole blood. The following applies: read-out: WB (IL-2) IC50 (nM, Avg).

Chain of hKv1.3 (P22001 whole entry): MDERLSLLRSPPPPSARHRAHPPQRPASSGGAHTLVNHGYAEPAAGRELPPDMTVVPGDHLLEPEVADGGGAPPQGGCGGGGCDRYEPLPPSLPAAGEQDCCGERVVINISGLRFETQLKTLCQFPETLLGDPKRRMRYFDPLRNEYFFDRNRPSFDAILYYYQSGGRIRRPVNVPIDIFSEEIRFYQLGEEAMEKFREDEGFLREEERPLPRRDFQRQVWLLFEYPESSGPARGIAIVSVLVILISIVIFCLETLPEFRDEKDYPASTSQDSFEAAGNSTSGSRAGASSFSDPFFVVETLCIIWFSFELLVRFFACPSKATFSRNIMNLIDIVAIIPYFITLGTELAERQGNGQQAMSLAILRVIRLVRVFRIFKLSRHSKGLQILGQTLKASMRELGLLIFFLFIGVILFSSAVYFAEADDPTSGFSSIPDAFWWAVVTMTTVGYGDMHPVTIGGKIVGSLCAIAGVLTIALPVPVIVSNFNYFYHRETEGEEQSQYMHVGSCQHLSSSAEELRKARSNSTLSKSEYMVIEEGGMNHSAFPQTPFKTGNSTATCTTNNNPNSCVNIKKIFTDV

For `CCCC[C@@H]1NC(=O)[C@H](CO)NC(=O)[C@H](Cc2c[nH]cn2)NC(=O)[C@H](CCCCN)NC(=O)[C@@H]2CSSC[C@@H]3NC(=O)[C@H]([C@@H](C)O)NC(=O)[C@H](CCCNC(=N)N)NC(=O)[C@H](CCCNC(=N)N)NC(=O)[C@H](CSSC[C@H](NC(=O)[C@H](CCCNC(=N)N)NC(=O)[C@H](CO)NC(=O)[C@H](CCCCN)NC(=O)[C@@H]4CCCN4C(=O)[C@H]([C@@H](C)CC)NC(=O)[C@H]([C@@H](C)O)NC(=O)[C@H](CC(=O)O)NC(=O)[C@H](CCC(=O)O)NC(=O)[C@@H](NC(=O)[C@H](CO)NC(=O)[C@@H](N)CCCNC(=N)N)CSSC[C@@H](C(N)=O)NC(=O)[C@H]([C@@H](C)O)NC(=O)CNC3=O)C(=O)N[C@@H]([C@@H](C)O)C(=O)N[C@@H](C)C(=O)N[C@@H](Cc3ccccc3)C(=O)N[C@@H](CCCCN)C(=O)N2)NC(=O)[C@H](Cc2ccccc2)NC(=O)[C@H](CO)NC(=O)[C@H](CC(C)C)NC(=O)[C@H](CCCNC(=N)N)NC(=O)[C@H](Cc2ccc(O)cc2)NC(=O)[C@H](CCCCN)NC1=O` [[Glu4, Lys16, Nle21,Arg30]ShK-amide], the 50% inhibitory concentration (IC50) was found to be 0.132 nM in assay [1], 1.34 nM in assay [2] and 1.18 nM in assay [3].

In the case of `CC[C@@H]1NC(=O)[C@H](CO)NC(=O)[C@H](Cc2c[nH]cn2)NC(=O)[C@H](CCCCN)NC(=O)[C@@H]2CSSC[C@@H]3NC(=O)[C@H]([C@@H](C)O)NC(=O)[C@H](CCCCN)NC(=O)[C@H](CCCNC(=N)N)NC(=O)[C@H](CSSC[C@H](NC(=O)[C@H](CCCNC(=N)N)NC(=O)[C@H](CO)NC(=O)[C@H](CCCCN)NC(=O)[C@@H]4CCCN4C(=O)[C@H]([C@@H](C)CC)NC(=O)[C@H]([C@@H](C)O)NC(=O)[C@H](CC(=O)O)NC(=O)[C@H](CCC(=O)O)NC(=O)[C@@H](NC(=O)[C@H](CO)NC(=O)[C@@H](N)CCCNC(=N)N)CSSC[C@@H](C(N)=O)NC(=O)[C@H]([C@@H](C)O)NC(=O)CNC3=O)C(=O)N[C@@H]([C@@H](C)O)C(=O)N[C@@H](C)C(=O)N[C@@H](Cc3ccccc3)C(=O)N[C@@H](CCCCN)C(=O)N2)NC(=O)[C@H](Cc2ccccc2)NC(=O)[C@H](CO)NC(=O)[C@H](CC(C)C)NC(=O)[C@H](CCCNC(=N)N)NC(=O)[C@H](Cc2ccc(O)cc2)NC(=O)[C@H](CCCCN)NC1=O` [[Glu4, Lys16,Abu21]ShK-amide], the half-maximal inhibitory concentration (IC50) in assay [1] amounted to 0.33 nM; in assay [2], 1.76 nM; in assay [3] it was 1.11 nM.

For the molecule `CCCC[C@@H]1NC(=O)[C@H](CO)NC(=O)[C@H](Cc2c[nH]cn2)NC(=O)[C@H](CCCCN)NC(=O)[C@@H]2CSSC[C@@H]3NC(=O)[C@H]([C@@H](C)O)NC(=O)[C@H](CCCCN)NC(=O)[C@H](CCCNC(=N)N)NC(=O)[C@H](CSSC[C@H](NC(=O)[C@H](CCCNC(=N)N)NC(=O)[C@H](CO)NC(=O)[C@H](CCCCN)NC(=O)[C@@H]4CCCN4C(=O)[C@H]([C@@H](C)CC)NC(=O)[C@H]([C@@H](C)O)NC(=O)[C@H](CC(=O)O)NC(=O)[C@H](CCC(=O)O)NC(=O)[C@@H](NC(=O)[C@H](CO)NC(=O)[C@@H](N)CCCNC(=N)N)CSSC[C@@H](C(N)=O)NC(=O)[C@H]([C@@H](C)O)NC(=O)CNC3=O)C(=O)N[C@@H]([C@@H](C)O)C(=O)N[C@@H](C)C(=O)N[C@@H](Cc3ccccc3)C(=O)N[C@@H](CCCCN)C(=O)N2)NC(=O)[C@H](Cc2ccccc2)NC(=O)[C@H](CO)NC(=O)[C@H](CC(C)C)NC(=O)[C@H](CCCNC(=N)N)NC(=O)[C@H](Cc2ccc(O)cc2)NC(=O)[C@H](CCCCN)NC1=O` [[Glu4, Lys16,Nle21]ShK-amide], the IC50 in assay [1] is 0.149 nM; in assay [2] it was 0.965 nM; in assay [3] it was 0.57 nM.

For the molecule `CCC[C@@H]1NC(=O)[C@H](CO)NC(=O)[C@H](Cc2c[nH]cn2)NC(=O)[C@H](CCCCN)NC(=O)[C@@H]2CSSC[C@@H]3NC(=O)[C@H]([C@@H](C)O)NC(=O)[C@H](CCCCN)NC(=O)[C@H](CCCNC(=N)N)NC(=O)[C@H](CSSC[C@H](NC(=O)[C@H](CCCNC(=N)N)NC(=O)[C@H](CO)NC(=O)[C@H](CCCCN)NC(=O)[C@@H]4CCCN4C(=O)[C@H]([C@@H](C)CC)NC(=O)[C@H]([C@@H](C)O)NC(=O)[C@H](CC(=O)O)NC(=O)[C@H](CCC(=O)O)NC(=O)[C@@H](NC(=O)[C@H](CO)NC(=O)[C@@H](N)CCCNC(=N)N)CSSC[C@@H](C(N)=O)NC(=O)[C@H]([C@@H](C)O)NC(=O)CNC3=O)C(=O)N[C@@H]([C@@H](C)O)C(=O)N[C@@H](C)C(=O)N[C@@H](Cc3ccccc3)C(=O)N[C@@H](CCCCN)C(=O)N2)NC(=O)[C@H](Cc2ccccc2)NC(=O)[C@H](CO)NC(=O)[C@H](CC(C)C)NC(=O)[C@H](CCCNC(=N)N)NC(=O)[C@H](Cc2ccc(O)cc2)NC(=O)[C@H](CCCCN)NC1=O` [[Glu4, Lys16,Nva21]ShK-amide], the IC50 in assay [1] came out at 0.086 nM; in assay [2] it was 0.427 nM; in assay [3] it was 0.405 nM.

On to `CC[C@H](C)[C@@H]1NC(=O)[C@H]([C@@H](C)O)NC(=O)[C@H](CC(=O)O)NC(=O)[C@H](CCC(=O)O)NC(=O)[C@@H](NC(=O)[C@H](CO)NC(=O)[C@@H](N)CCCNC(=N)N)CSSC[C@@H](C(N)=O)NC(=O)[C@H]([C@@H](C)O)NC(=O)CNC(=O)[C@@H]2CSSC[C@@H]3NC(=O)[C@H](CCCCN)NC(=O)[C@H](Cc4ccccc4)NC(=O)[C@H](C)NC(=O)[C@H]([C@@H](C)O)NC(=O)[C@H](CSSC[C@H](NC(=O)[C@H](Cc4ccccc4)NC(=O)[C@H](CO)NC(=O)[C@H](CC(C)C)NC(=O)[C@H](CCCNC(=N)N)NC(=O)[C@H](Cc4ccc(O)cc4)NC(=O)[C@H](CCCCN)NC(=O)[C@H](CO)NC(=O)[C@H](CO)NC(=O)[C@H](Cc4c[nH]cn4)NC(=O)[C@H](CCCCN)NC3=O)C(=O)N[C@@H](CCCNC(=N)N)C(=O)N[C@@H](CCCCN)C(=O)N[C@@H]([C@@H](C)O)C(=O)N2)NC(=O)[C@H](CCCNC(=N)N)NC(=O)[C@H](CO)NC(=O)[C@H](CCCCN)NC(=O)[C@@H]2CCCN2C1=O` [[Glu4, Lys16,Ser21]ShK-amide], for which the 50% inhibitory concentration (IC50) in assay [1] stood at 0.098 nM; in assay [2] it was 1.99 nM; in assay [3] it was 0.86 nM.

`CC[C@H](C)[C@@H]1NC(=O)[C@H]([C@@H](C)O)NC(=O)[C@H](CC(=O)O)NC(=O)[C@H](CCC(=O)O)NC(=O)[C@@H](NC(=O)[C@H](CO)NC(=O)[C@@H](N)CCCNC(=N)N)CSSC[C@@H](C(N)=O)NC(=O)[C@H]([C@@H](C)O)NC(=O)CNC(=O)[C@@H]2CSSC[C@@H]3NC(=O)[C@H](CCCCN)NC(=O)[C@H](Cc4ccccc4)NC(=O)[C@H](C)NC(=O)[C@H]([C@@H](C)O)NC(=O)[C@H](CSSC[C@H](NC(=O)[C@H](Cc4ccccc4)NC(=O)[C@H](CO)NC(=O)[C@H](CC(C)C)NC(=O)[C@H](CCCNC(=N)N)NC(=O)[C@H](Cc4ccc(O)cc4)NC(=O)[C@H](CCCCN)NC(=O)[C@H]([C@@H](C)O)NC(=O)[C@H](CO)NC(=O)[C@H](Cc4c[nH]cn4)NC(=O)[C@H](CCCCN)NC3=O)C(=O)N[C@@H](CCCNC(=N)N)C(=O)N[C@@H](CCCCN)C(=O)N[C@@H]([C@@H](C)O)C(=O)N2)NC(=O)[C@H](CCCNC(=N)N)NC(=O)[C@H](CO)NC(=O)[C@H](CCCCN)NC(=O)[C@@H]2CCCN2C1=O` [[Glu4, Lys16,Thr21]ShK-amide]: the concentration for half-maximal inhibition (IC50) came out at 0.085 nM in assay [1], 3.94 nM in assay [2] and 1.38 nM in assay [3].

Consider `CCCC[C@@H]1NC(=O)[C@H](CO)NC(=O)[C@H](Cc2c[nH]cn2)NC(=O)[C@H](CCCCN)NC(=O)[C@@H]2CSSC[C@@H]3NC(=O)[C@H]([C@@H](C)O)NC(=O)[C@H](CCCCN)NC(=O)[C@H](CCCNC(=N)N)NC(=O)[C@H](CSSC[C@H](NC(=O)[C@H](CCCNC(=N)N)NC(=O)[C@H](CO)NC(=O)[C@H](CCCCN)NC(=O)[C@@H]4CCCN4C(=O)[C@H]([C@@H](C)CC)NC(=O)[C@H]([C@@H](C)O)NC(=O)[C@H](CC(=O)O)NC(=O)[C@H](CCC(=O)O)NC(=O)[C@@H](NC(=O)[C@H](CO)NC(=O)[C@@H](N)CCCNC(=N)N)CSSC[C@@H](C(N)=O)NC(=O)[C@H]([C@@H](C)O)NC(=O)CNC3=O)C(=O)N[C@@H]([C@@H](C)O)C(=O)N[C@@H](C)C(=O)N[C@@H](C)C(=O)N[C@@H](CCCCN)C(=O)N2)NC(=O)[C@H](Cc2ccccc2)NC(=O)[C@H](CO)NC(=O)[C@H](CC(C)C)NC(=O)[C@H](CCCNC(=N)N)NC(=O)[C@H](Cc2ccc(O)cc2)NC(=O)[C@H](CCCCN)NC1=O` [[Glu4,A1a15,Lys16,Nle21]ShK-amide], for which the concentration for half-maximal inhibition (IC50) was 0.168 nM in assay [1], 0.901 nM in assay [2] and 0.856 nM in assay [3].

Regarding `CCCC[C@@H]1NC(=O)[C@H](CO)NC(=O)[C@H](Cc2c[nH]cn2)NC(=O)[C@H](CCCCN)NC(=O)[C@@H]2CSSC[C@@H]3NC(=O)[C@H]([C@@H](C)O)NC(=O)[C@H](CCCNC(=N)N)NC(=O)[C@H](CCCNC(=N)N)NC(=O)[C@H](CSSC[C@H](NC(=O)[C@H](CCCNC(=N)N)NC(=O)[C@H](CO)NC(=O)[C@H](CCCCN)NC(=O)[C@@H]4CCCN4C(=O)[C@H]([C@@H](C)CC)NC(=O)[C@H]([C@@H](C)O)NC(=O)[C@H](CC(=O)O)NC(=O)[C@H](CCC(=O)O)NC(=O)[C@@H](NC(=O)[C@H](CO)NC(=O)[C@@H](N)CCCNC(=N)N)CSSC[C@@H](C(N)=O)NC(=O)[C@H]([C@@H](C)O)NC(=O)CNC3=O)C(=O)N[C@@H]([C@@H](C)O)C(=O)N[C@@H](C)C(=O)N[C@@H](C)C(=O)N[C@@H](CCCCN)C(=O)N2)NC(=O)[C@H](Cc2ccccc2)NC(=O)[C@H](CO)NC(=O)[C@H](CC(C)C)NC(=O)[C@H](CCCNC(=N)N)NC(=O)[C@H](Cc2ccc(O)cc2)NC(=O)[C@H](CCCCN)NC1=O` [[Glu4,Ala15,Lys16,Nle21, Arg30]ShK-amide], the IC50 in assay [1] was found to be 0.118 nM; in assay [2], 0.816 nM; in assay [3], 0.647 nM.
